Data published in ChEMBL document CHEMBL1759863, “Synthesis and biological activity of hydroxy substituted phenyl-benzo[d]thiazole analogues for antityrosinase activity in B16 cells” (Bioorg Med Chem Lett, 2011).

Assays:
[1] = molecular target: T1, Tyrosinase (Mus musculus) (UniProt P11344); experiment: Inhibition of tyrosinase in alpha-MSH-induced mouse B16 cells at 10 uM; type: cell-based
T1 sequence (whole entry): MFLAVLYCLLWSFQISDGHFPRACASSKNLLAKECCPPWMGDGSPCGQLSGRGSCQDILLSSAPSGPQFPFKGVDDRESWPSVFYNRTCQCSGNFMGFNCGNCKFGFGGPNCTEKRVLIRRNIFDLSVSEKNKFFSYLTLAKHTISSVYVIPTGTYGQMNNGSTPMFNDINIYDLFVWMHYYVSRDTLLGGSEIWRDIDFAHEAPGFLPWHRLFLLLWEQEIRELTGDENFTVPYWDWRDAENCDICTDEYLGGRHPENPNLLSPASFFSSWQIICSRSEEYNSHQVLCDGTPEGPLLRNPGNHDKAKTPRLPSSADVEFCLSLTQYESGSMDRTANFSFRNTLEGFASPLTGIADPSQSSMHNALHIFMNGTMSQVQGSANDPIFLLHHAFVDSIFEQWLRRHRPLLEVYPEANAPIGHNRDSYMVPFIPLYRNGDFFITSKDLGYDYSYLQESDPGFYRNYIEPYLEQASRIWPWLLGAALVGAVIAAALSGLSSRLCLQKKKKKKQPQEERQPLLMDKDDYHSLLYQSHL

[2] = molecular target: T1, Tyrosinase (Mus musculus); experiment: Inhibition of tyrosinase in alpha-MSH-induced mouse B16 cells at 5 uM; type: cell-based
[3] = molecular target: T1, Tyrosinase (Mus musculus); experiment: Inhibition of tyrosinase in alpha-MSH-induced mouse B16 cells at 2.5 uM; type: cell-based
[4] = tested on: B16; experiment: Cytotoxicity against mouse B16 cells assessed as viable cells at 10 uM after 48 hrs by MTT assay relative to control; type: functional; conditions: B16, 48 h, read-out: Activity
[5] = tested on: B16; experiment: Cytotoxicity against mouse B16 cells assessed as viable cells at 5 uM after 48 hrs by MTT assay relative to control; type: functional; conditions: B16, 48 h, read-out: Activity
[6] = tested on: B16; experiment: Cytotoxicity against mouse B16 cells assessed as viable cells at 2.5 uM after 48 hrs by MTT assay relative to control; type: functional; conditions: B16, 48 h, read-out: Activity
[7] = tested on: B16; experiment: Cytotoxicity against mouse B16 cells assessed as viable cells at 1 uM after 48 hrs by MTT assay relative to control; type: functional; conditions: B16, 48 h, read-out: Activity
[8] = tested on: B16; experiment: Cytotoxicity against mouse B16 cells assessed as viable cells at 0.2 uM after 48 hrs by MTT assay relative to control; type: functional; conditions: B16, 48 h, read-out: Activity
[9] = molecular target: T2, Tyrosinase (Agaricus bisporus) (UniProt O42713); experiment: Inhibition of mushroom tyrosinase at 0.08 uM using L-tyrosine as a substrate
T2 sequence (whole entry): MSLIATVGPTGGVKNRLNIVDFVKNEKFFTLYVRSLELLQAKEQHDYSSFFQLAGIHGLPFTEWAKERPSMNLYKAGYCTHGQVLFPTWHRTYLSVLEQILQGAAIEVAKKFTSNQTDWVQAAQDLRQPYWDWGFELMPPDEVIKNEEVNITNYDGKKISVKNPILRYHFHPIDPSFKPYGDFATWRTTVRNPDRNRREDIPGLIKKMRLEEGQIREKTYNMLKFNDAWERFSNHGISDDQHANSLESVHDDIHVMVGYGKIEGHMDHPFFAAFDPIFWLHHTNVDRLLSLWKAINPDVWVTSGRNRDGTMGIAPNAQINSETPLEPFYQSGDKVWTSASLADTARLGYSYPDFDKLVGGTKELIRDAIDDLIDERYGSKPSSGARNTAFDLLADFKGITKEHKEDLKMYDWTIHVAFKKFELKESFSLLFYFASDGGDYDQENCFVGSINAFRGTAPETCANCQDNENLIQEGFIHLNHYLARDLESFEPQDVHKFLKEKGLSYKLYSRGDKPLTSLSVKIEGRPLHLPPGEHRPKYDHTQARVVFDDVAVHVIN

[10] = molecular target: T2, Tyrosinase (Agaricus bisporus); experiment: Inhibition of mushroom tyrosinase at 0.01 uM using L-tyrosine as a substrate
[11] = molecular target: T3, Tyrosinase (Agaricus bisporus, UniProt O42713)
T3 sequence (O42713 whole entry): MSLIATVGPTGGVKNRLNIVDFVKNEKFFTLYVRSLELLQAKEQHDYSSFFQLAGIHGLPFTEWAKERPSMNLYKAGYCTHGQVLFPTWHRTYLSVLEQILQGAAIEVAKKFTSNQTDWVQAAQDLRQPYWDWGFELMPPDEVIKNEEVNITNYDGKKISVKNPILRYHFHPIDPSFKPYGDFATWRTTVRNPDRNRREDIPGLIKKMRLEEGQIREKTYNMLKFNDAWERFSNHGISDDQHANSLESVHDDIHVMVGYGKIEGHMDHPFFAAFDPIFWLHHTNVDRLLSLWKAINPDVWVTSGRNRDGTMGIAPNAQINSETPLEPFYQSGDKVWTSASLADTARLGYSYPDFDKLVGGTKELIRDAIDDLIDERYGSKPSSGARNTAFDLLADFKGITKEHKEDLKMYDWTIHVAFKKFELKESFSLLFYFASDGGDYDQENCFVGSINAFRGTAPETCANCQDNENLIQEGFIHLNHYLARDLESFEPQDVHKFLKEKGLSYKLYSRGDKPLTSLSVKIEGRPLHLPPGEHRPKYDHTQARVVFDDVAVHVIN
Description: Inhibition of mushroom tyrosinase using L-tyrosine as a substrate

[12] = molecular target: T3, Tyrosinase; remark: listed apart in the source
Description: Inhibition of mushroom tyrosinase at 1.25 uM by Lineweaver-Burk plot analysis

[13] = molecular target: T3, Tyrosinase; remark: listed apart in the source
Description: Inhibition of mushroom tyrosinase at 20 uM by Lineweaver-Burk plot analysis

[14] = tested on: B16; experiment: cells; conditions: Mus musculus, B16, 24 h, read-out: INH
Description: Inhibition of alpha-MSH-induced melanin production in mouse B16 cells at 10 uM after 24 hrs relative to control

[15] = tested on: B16; experiment: cells; conditions: Mus musculus, B16, 24 h, read-out: INH; remark: listed apart in the source
Description: Inhibition of alpha-MSH-induced melanin production in mouse B16 cells at 5 uM after 24 hrs relative to control

[16] = tested on: B16; experiment: cells; conditions: Mus musculus, B16, 24 h, read-out: INH; remark: listed apart in the source
Description: Inhibition of alpha-MSH-induced melanin production in mouse B16 cells at 2.5 uM after 24 hrs relative to control

[17] = tested on: B16; experiment: cells; conditions: Mus musculus, B16, 24 h, read-out: INH; remark: listed apart in the source
Description: Inhibition of alpha-MSH-induced melanin production in mouse B16 cells at 1 uM after 24 hrs relative to control

[18] = tested on: B16; experiment: cells; conditions: Mus musculus, B16, 24 h, read-out: INH; remark: listed apart in the source
Description: Inhibition of alpha-MSH-induced melanin production in mouse B16 cells at 0.2 uM after 24 hrs relative to control

[19] = molecular target: T1, Tyrosinase (Mus musculus); experiment: Inhibition of tyrosinase in alpha-MSH-induced mouse B16 cells at 1 uM; type: cell-based
[20] = substrate: Oc1ccc(-c2nc3ccccc3s2)c(O)c1; conditions: Agaricus bisporus; 1.25 uM
[21] = substrate: Oc1ccc(-c2nc3ccccc3s2)cc1; conditions: Agaricus bisporus; 1.25 uM
[22] = substrate: Oc1ccc(-c2nc3ccccc3s2)c(O)c1; experiment: (§1) Activity of mushroom tyrosinase at 20 uM by Lineweaver-Burk plot analysis; conditions: Agaricus bisporus
[23] = substrate: Oc1ccc(-c2nc3ccccc3s2)cc1; experiment: as §1; conditions: Agaricus bisporus

Row | inhibition [1] | inhibition [2] | inhibition [3] | inhibition [9] | inhibition [10] | IC50 [11] | Ki [12] | Ki [13] | Molecule | viability at 10 µM [4] | viability at 5 µM [5] | viability at 2.5 µM [6] | viability at 1 µM [7] | viability at 0.2 µM [8] | inhibition at 10 µM [14] | inhibition at 5 µM [15] | inhibition at 2.5 µM [16] | inhibition at 1 µM [17] | inhibition at 0.2 µM [18] | also measured
1 | 99.6% | 108% | 111% | 70.8% | 49.9% | 10 nM | 673 nM | 7700 nM | Oc1ccc(-c2nc3ccccc3s2)c(O)c1 | 94.4% | 94.6% | 94.7% | 94.9% | 96.3% | 131% | 141% | 190% | 217% | 224% | –
2 | 95.2% | 97.7% | 98.8% | 46.2% | 45.4% | 1140 nM | 567 nM | 1700 nM | Oc1ccc(-c2nc3ccccc3s2)cc1 | 95.8% | 96.5% | 97.6% | 98.9% | 99.7% | 97.1% | 104% | 129% | 188% | 201% | inhibition [19]: 133%
3 | – | – | – | – | – | – | – | – | Tyrosinase (Agaricus bisporus), O42713 (protein) MSLIATVGPTGGVKNRLNIVDFVKNEKFFTLYVRSLELLQAKEQHDYSSFFQLAGIHGLPFTEWAKERPSMNLYKAGYCTHGQVLFPTWHRTYLSVLEQILQGAAIEVAKKFTSNQTDWVQAAQDLRQPYWDWGFELMPPDEVIKNEEVNITNYDGKKISVKNPILRYHFHPIDPSFKPYGDFATWRTTVRNPDRNRREDIPGLIKKMRLEEGQIREKTYNMLKFNDAWERFSNHGISDDQHANSLESVHDDIHVMVGYGKIEGHMDHPFFAAFDPIFWLHHTNVDRLLSLWKAINPDVWVTSGRNRDGTMGIAPNAQINSETPLEPFYQSGDKVWTSASLADTARLGYSYPDFDKLVGGTKELIRDAIDDLIDERYGSKPSSGARNTAFDLLADFKGITKEHKEDLKMYDWTIHVAFKKFELKESFSLLFYFASDGGDYDQENCFVGSINAFRGTAPETCANCQDNENLIQEGFIHLNHYLARDLESFEPQDVHKFLKEKGLSYKLYSRGDKPLTSLSVKIEGRPLHLPPGEHRPKYDHTQARVVFDDVAVHVIN | – | – | – | – | – | – | – | – | – | – | Km [20]: 1160 µM; Km [21]: 1020 µM; Km [22]: 1460 µM; Km [23]: 5650 µM
